In patent US20260234107A1, “TRYPTAMINES AND METHODS OF TREATING MOOD DISORDERS” (priority 2022, published 2026):
Like-named read-outs stand apart in the source and are kept apart here.

Columns and labels:
[1] = test system: monoamine oxidase A and B (MAO-A and MAO-B); experiment: Stability in the presence of monoamine oxidases (human liver mitochondria preparation); design: half-life / microsomal CLint: dose or concentration left out as unconfirmed; conditions: for stability in the presence of MAO (in words): human liver mitochondria preparation; for Remaining (t = 60 min) / half-life / microsomal CLint: human liver mitochondria; for half-life / microsomal CLint: human, pH 7.4; for CLint(MAO) / t1/2: human liver mitochondria 0.30 mg protein/mL, 37° C.
Procedure: Liver Mitochondria Incubations. Human liver mitochondria (Xenotech H0610.M) were used.

[2] = Stability in mouse brain homogenate; format: in vitro ADME, male CD-1 mice; conditions: mouse brain homogenate, 1 μM, 37° C.; for half-life at 1 µM: male, CD-1
Procedure: Disclosed compounds were tested for stability in mouse brain homogenate (Table 7). There was widely variable stability among the test compounds under the conditions of the experiment.
(§1) Mouse Brain Homogenate Stability. Frozen mouse brain homogenate (pooled from male CD-1 mice, BioreclamationIVT, MSE00BRAINMZA) was thawed in a water bath at 37° C. immediately prior to use. Positive controls and test compounds (final concentration in incubation medium=1 μM for test compounds and 2 μM for controls, all with 2% DMSO) were incubated in duplicate for each time point (0, 10, 30, 60, and 120 min) in the mouse brain homogenate at a total reaction volume of 100 μL at 37° C. At the end of each incubation period, reactions were immediately quenched with 400 μL of acetonitrile containing internal standard (200 ng/mL tolbutamine and 200 ng/mL labetalol) and mixed thoroughly. Plates were then sealed, shaken for 20 min, and centrifuged at 4,000 rpm and 4° C. for 20 min. Aliquots of 50 μL of each supernatant were diluted into 100 μL of water and the mixtures were then shaken again for 10 min.

[3] = Stability in rat brain homogenate; format: in vitro ADME, male Sprague Dawley rats; conditions: rat brain homogenate, 1 μM, 37° C.; for half-life at 1 µM: male, Sprague Dawley
Procedure: Disclosed compounds were tested for stability in rat brain homogenate (Table 8). There was widely variable stability among the test compounds under the conditions of the experiment.
as §1, with “Rat” for “Mouse”, “rat” for “mouse”, “Sprague Dawley rats,” for “CD-1 mice,”, “RAT00BRAINMZA)” for “MSE00BRAINMZA)”

[4] = Metabolic stability in human liver microsomes (HLM); design: microsomal CLint / half-life: dose or concentration left out as unconfirmed; conditions: both, human, pooled human liver microsomes, pH 7.4
[5] = Plasma pharmacokinetics in rats after intravenous administration; conditions: for AUC(0-t) / C0 / half-life: male, Sprague Dawley, rat, plasma, iv, 1 mg/kg; for plasma half-life (in words): rats, IV 1 mg/kg
rat synaptosomes = experiment: Serotonin (5-HT) release from rat synaptosomes; format: biochemical, Male Sprague-Dawley rats; conditions: for EC50: rat synaptosomes preloaded with [3H]5-HT; for % Release @ Max Dose (10 μM): rat synaptosomes
Procedure: Disclosed compounds were assessed for their ability to release serotonin (5-HT) from […] (Table 9). Potency and efficacy for 5-HT release varied substantially depending on the specific compound. […] However, there was also substantial variability among 4-hydroxy compounds.
Synaptosome 5-HT Release Assay. Synaptosome release assays were conducted according to modifications of previously described procedures (Partilla et al. (2016). Interrogating the Activity of Ligands at Monoamine Transporters in Rat Brain Synaptosomes. In Neurotransmitter Transporters (pp. 41-52). Springer.). Briefly, synaptosomes were prepared from rat brains. Male Sprague-Dawley rats were rendered unconscious with CO2 and their brains were immediately removed. The cerebella were discarded and the whole brains (minus striatum) were placed in ice-cold 0.32 M sucrose (10 mL per brain) and gently homogenized by hand. The homogenate of each brain was centrifuged at 1,000×g at 4° C. for 10 mins and the resulting supernatant was diluted with ice-cold 0.32 M sucrose to a total volume of 10 mL to provide the synaptosome solution. Synaptosomes were then preloaded with 5 nM [^3H]5-HT in the presence of selective uptake inhibitors of DAT (50 nM GBR12935), NET (100 nM nomifensine), and VMAT2 (1 μM reserpine) in Krebs phosphate buffer (KPB). The incubations were allowed to reach equilibrium for 2 h at 25° C. For the release reactions, 425 μL of preloaded synaptosomes were added to test tubes containing 75 μL of test drugs diluted in KPB containing 1 mg/mL BSA. After 10 mins, the release reaction was stopped using a cell harvester by rapid vacuum filtration over GF/B filter paper presoaked in wash buffer (10 mM Tris-HCl, pH 7.4, 150 mM NaCl) and the filters were washed with additional wash buffer. Filters were dried for 1 h at 60° C. and retained radioactivity was quantified using a MicroBeta 2 liquid scintillation counter. The amount of retained radioactivity was inversely proportional to the extent of release.

5-HT1A = target: T1, 5-HT1A (Homo sapiens, UniProt P08908); experiment: FLIPR Ca2+ flux agonist assay at 5-HT1A; format: cell-based
T1 construct: host or cells: CHO cells
T1 sequence (P08908 1-422): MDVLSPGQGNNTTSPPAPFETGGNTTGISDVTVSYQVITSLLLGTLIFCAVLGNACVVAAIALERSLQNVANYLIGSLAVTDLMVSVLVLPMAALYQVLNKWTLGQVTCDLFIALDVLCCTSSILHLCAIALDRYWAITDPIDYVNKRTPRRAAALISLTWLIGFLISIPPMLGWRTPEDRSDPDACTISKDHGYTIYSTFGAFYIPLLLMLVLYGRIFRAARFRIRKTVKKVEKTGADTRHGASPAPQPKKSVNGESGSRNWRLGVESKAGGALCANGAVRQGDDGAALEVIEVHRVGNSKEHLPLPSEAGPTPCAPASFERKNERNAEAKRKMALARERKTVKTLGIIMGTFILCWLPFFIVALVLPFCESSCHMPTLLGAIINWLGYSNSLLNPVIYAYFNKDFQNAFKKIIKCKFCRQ
Procedure: (§2) A solution of 250 mM probenecid in 1 mL FLIPR assay buffer was prepared fresh. This was combined with a fluorescent dye (Fluo-4 Direct™) to make a final assay concentration of 2.5 mM. […] The fluorescent dye was then added to the assay plate along with assay buffer to a final volume of 40 μL. The cell plate was incubated for 50 min at 37° C. and 5% CO2 and placed into the FLIPR Tetra along with the compound plate. 10 μL of references and compounds were then transferred from the compound plate into the cell plate and the fluorescent signal was read.

5-HT2B = target: T2, 5-HT2B (Homo sapiens, UniProt P41595); experiment: FLIPR Ca2+ flux agonist assay at 5-HT2B; format: cell-based; conditions: Ca2+ flux
T2 construct: host or cells: HEK293
Procedure: as §2

5-HT2C receptor = target: T3, 5-HT2C receptor (Homo sapiens, UniProt P28335); experiment: cell-based; format: cell-based; conditions: Ca2+ flux
T3 sequence (P28335 33-458): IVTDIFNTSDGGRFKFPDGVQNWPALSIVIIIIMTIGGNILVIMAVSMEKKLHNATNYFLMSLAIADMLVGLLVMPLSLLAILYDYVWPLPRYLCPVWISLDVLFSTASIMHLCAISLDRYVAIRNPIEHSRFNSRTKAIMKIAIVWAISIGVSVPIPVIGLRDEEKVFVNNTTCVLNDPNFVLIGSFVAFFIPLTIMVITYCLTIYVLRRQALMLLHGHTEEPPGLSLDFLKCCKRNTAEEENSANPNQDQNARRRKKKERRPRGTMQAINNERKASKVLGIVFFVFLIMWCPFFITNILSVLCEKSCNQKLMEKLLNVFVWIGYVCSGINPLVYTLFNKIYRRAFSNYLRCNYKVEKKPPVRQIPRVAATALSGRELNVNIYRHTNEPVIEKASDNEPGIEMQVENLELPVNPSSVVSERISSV

5-HT2A = 5-HT2A (Homo sapiens, UniProt P28223); experiment: FLIPR Ca2+ flux agonist assay at 5-HT2A; format: cell-based; design: host or cells: HEK293; conditions: Ca2+ flux, HEK293; read-out: 5-HT2A EC50
Procedure: as §2

T2 sequence (P41595 whole entry, species assumed): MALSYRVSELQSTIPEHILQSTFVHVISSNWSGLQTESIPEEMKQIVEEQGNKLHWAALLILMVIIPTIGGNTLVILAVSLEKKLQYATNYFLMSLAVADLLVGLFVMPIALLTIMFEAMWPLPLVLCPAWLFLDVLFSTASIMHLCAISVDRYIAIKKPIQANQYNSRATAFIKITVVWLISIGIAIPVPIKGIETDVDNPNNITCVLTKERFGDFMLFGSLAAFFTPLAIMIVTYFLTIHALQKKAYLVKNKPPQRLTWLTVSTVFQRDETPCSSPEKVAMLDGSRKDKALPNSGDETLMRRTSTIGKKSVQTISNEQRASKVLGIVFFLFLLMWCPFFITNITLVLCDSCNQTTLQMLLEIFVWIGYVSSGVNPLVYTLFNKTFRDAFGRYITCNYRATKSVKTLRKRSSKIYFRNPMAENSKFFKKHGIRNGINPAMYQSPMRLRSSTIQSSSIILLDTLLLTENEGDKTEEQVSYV
Chain of 5-HT2A (P28223 whole entry): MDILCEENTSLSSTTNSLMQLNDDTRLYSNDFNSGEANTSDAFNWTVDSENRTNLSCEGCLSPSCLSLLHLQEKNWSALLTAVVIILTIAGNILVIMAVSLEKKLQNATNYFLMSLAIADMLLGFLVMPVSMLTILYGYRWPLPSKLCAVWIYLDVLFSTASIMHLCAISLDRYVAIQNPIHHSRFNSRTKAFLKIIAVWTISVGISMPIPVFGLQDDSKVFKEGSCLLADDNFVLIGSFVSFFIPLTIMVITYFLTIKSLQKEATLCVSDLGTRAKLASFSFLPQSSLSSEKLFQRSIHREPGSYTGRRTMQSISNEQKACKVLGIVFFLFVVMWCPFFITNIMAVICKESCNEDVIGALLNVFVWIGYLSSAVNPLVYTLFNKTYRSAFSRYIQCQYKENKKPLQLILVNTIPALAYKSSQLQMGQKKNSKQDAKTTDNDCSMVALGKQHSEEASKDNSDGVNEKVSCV

SMILES | stability in the presence of MAO (in words) [1] | Remaining (t = 60 min) [1] [%] | half-life [1] [h] | microsomal CLint [1] [µL/min/mg] | half-life at 1 µM [2] [h] | % Compound Remaining (after 120 min) [2] [%] | half-life at 1 µM [3] [h] | % Compound Remaining (after 120 min) [3] [%] | half-life [4] [h] | microsomal CLint [4] [µL/min/mg] | AUC(0-t) [5] [ng·h/mL] | C0 [5] [ng/mL] | half-life [5] [h] | CLint(MAO) [1] [µL/min/mg] | t1/2 [1] [h] | EC50 (rat synaptosomes) [nM] | % Release @ Max Dose (10 μM) (rat synaptosomes) [%] | 5-HT1A % Act @ Max Dose (5-HT1A; Ca2+ flux, CHO cells) [%] | further results
CNCCc1c[nH]c2cccc(O)c12 [Compound 2, 3-(2-(methylamino)ethyl)-1H-indol-4-ol] | highly unstable | 12.8 | 0.312 | 124 | 0.233 | 0.2 | 0.105 | 0.2 | 0.22 | 105 | 21 | 185 | 0.18 |  |  |  |  |  | plasma half-life (in words) [5]: very short half-lives
CN(C)CCc1c[nH]c2ccccc12 [DMT, N,N-dimethyltryptamine, reference compound] | rapidly metabolized by MAO | 8.9 |  |  |  | 0.0 |  | 0.0 |  |  |  |  |  | 134.9 | 0.285 | 80.8 | 80.77 |  | t1/2 [2]: 0.107 h; t1/2 [3]: 0.085 h
CN(C)CCc1c[nH]c2cccc(O)c12 [Psilocin, psilocin, reference compound] | stable | 112.1 |  |  |  | 97.6 |  | 46.1 |  |  | 146 | 179 | 1.56 | <15.9 | >2.42 |  |  | 0.720 | t1/2 [2]: >4.818 h; t1/2 [3]: 1.913 h; plasma half-life (in words) [5]: much longer half-lives
CCCN(CC)CCc1c[nH]c2ccccc12 [EPT, N-ethyl-N-propyltryptamine, reference compound] | more stable | 95.1 |  |  |  |  |  |  |  |  |  |  |  | <15.9 | >2.42 | 264 | 45.02 | 75.5 | 5-HT2B % Act @ Max Dose (5-HT2B; HEK293, max dose): 80.4%; EC50 (5-HT2B; HEK293, ND = not determined due to lack of measurable agonism, read-out: 5-HT2B EC50): 40.3 nM; EC50 (5-HT2C receptor): 33.4 nM; 5-HT2C % Act @ Max Dose (5-HT2C receptor; max dose): 90.8%; EC50 (5-HT1A; Ca2+ flux, CHO cells, ND = not determined due to lack of measurable agonism, read-out: 5-HT1A EC50): 88700 nM; EC50 (5-HT2A): 30.5 nM
CCCNCCc1c[nH]c2cccc(O)c12 [Compound 3, 3-(2-(propylamino)ethyl)-1H-indol-4-ol] | highly stable | 97.3 | > 2.42 | < 15.9 | 1.21 | 29.2 | 2.28 | 52.5 | 1.99 | 11.6 |  |  |  |  |  | > 10000 | 36.06 | 10.7 | EC50 (5-HT1A): 33100 nM
CCNCCc1c[nH]c2cccc(O)c12 [Compound 5, 3-(2-(ethylamino)ethyl)-1H-indol-4-ol] |  | 76.2 | > 2.42 | < 15.9 | 3.06 | 67.2 | 2.63 | 61.5 | > 2.42 | < 9.6 | 161 | 350 | 0.65 |  |  | 4060 | 53.8 |  | 
CC(C)NCCc1c[nH]c2cccc(O)c12 [Compound 6, 3-(2-(isopropylamino)ethyl)-1H-indol-4-ol] |  | 80.5 | > 2.42 | < 15.9 | 2.71 | 62.6 | 2.27 | 53.8 | > 2.42 | < 9.6 |  |  |  |  |  | > 10000 | 32.8 | 10.15 | EC50 (5-HT1A): > 100000 nM
